According to ChEMBL document CHEMBL2176957, “Discovery of a novel noniminosugar acid α glucosidase chaperone series” (J Med Chem, 2012):
Converted amounts (≈) assume the structure as drawn.

Tests used:
[1] = target: T1, Lysosomal alpha-glucosidase (Homo sapiens, UniProt P10253); experiment: Inhibition of wild type recombinant GAA preincubated for 5 mins measured after 45 mins using red-shifted dye by fluorescence assay
[2] = target: T1, Lysosomal alpha-glucosidase; experiment: Inhibition of wild type recombinant GAA preincubated for 5 mins measured after 45 mins using blue-shifted dye by fluorescence assay
[3] = Aqueous solubility in PBS buffer
Liver = experiment: Half life in mouse liver microsomes
Caco-2 [4] = experiment: Permeability from apical to basolateral side of human Caco2 cells
Caco-2 [5] = experiment: Permeability from basolateral to apical side of human Caco2 cells

With `CC(=O)c1ccc(N2CCN(S(=O)(=O)c3ccc4c(c3)oc(=O)n4C)CC2)cc1` the IC50 [1] was “Not Active” and the IC50 [2] was “Not Active”.

Compound `O=C1Cc2cc(S(=O)(=O)N3CCN(c4ccc([N+](=O)[O-])cc4)CC3)ccc2N1` has an IC50 ([1]; read-out: IC50) of 3.26 µM and an IC50 ([2]; read-out: IC50) of 3.66 µM.

In the case of `CC(=O)c1ccc(N2CCN(S(=O)(=O)c3ccc4c(c3)n(C)c(=O)n4C)CC2)cc1`, the IC50 [1] is reported as “Not Active” and the IC50 [2] is reported as “Not Active”.

For `CC(=O)c1ccc(N2CCN(C(=O)c3ccc4c(c3)CCC(=O)N4)CC2)cc1`, the IC50 [1] was “Not Active” and the IC50 [2] was “Not Active”.

In the case of `CC(=O)c1ccc(N2CCN(S(=O)(=O)c3ccc4c(c3)CCC(=O)N4)CC2)cc1`, the IC50 [1] is reported as “Not Active” and the IC50 [2] is reported as “Not Active”.

With `CC(=O)c1ccc(N2CCN(S(=O)(=O)c3ccc4c(c3)CC(C)N4C(C)=O)CC2)cc1` (stereo not drawn) the IC50 [1] was “Not Active” and the IC50 [2] was “Not Active”.

`COC(=O)c1ccc(N2CCN(S(=O)(=O)c3ccc4c(c3)CC(=O)N4)CC2)cc1` showed an IC50 ([1]; read-out: IC50) of 36.6 µM and an IC50 ([2]; read-out: IC50) of 25.9 µM.

In the case of `CC(=O)c1ccc(N2CCN(S(=O)(=O)c3ccc(N4CCCC4=O)cc3)CC2)cc1`, the IC50 [1] is reported as “Not Active” and the IC50 [2] is reported as “Not Active”.

For `CC(=O)c1ccc(N2CCN(S(=O)(=O)c3ccc4[nH]c(=O)oc4c3)CC2)cc1`, the IC50 [1] was “Not Active” and the IC50 [2] was “Not Active”.

In the case of `CC(=O)N1CCN(c2ccc(NS(=O)(=O)c3ccc4c(c3)CC(=O)N4)cc2)CC1`, the IC50 [1] is reported as “Not Active” and the IC50 [2] is reported as “Not Active”.

For `O=C1Cc2cc(S(=O)(=O)N3CCN(c4ccc(Br)cc4)CC3)ccc2N1`, the IC50 [1] was “Not Active” and the IC50 [2] was “Not Active”.

In the case of `CC(=O)c1ccc(N2CCN(C(=O)c3ccc4c(c3)CC(=O)N4)CC2)cc1`, the IC50 [1] is reported as “Not Active” and the IC50 [2] is reported as “Not Active”.

Work on `N#Cc1ccc(N2CCN(S(=O)(=O)c3ccc4c(c3)CC(=O)N4)CC2)cc1` yielded a solubility [3] of 14.9 µM (≈ 5.7 µg/mL), an IC50 ([1]; read-out: IC50) of 3.26 µM and a t1/2 (Liver) of 57 min. The IC50 ([2]; read-out: IC50) was 2.91 µM.

In the case of `CC(=O)Nc1ccc(S(=O)(=O)N2CCN(c3ccc(C(C)=O)cc3)CC2)cc1`, the IC50 [1] is reported as “Not Active” and the IC50 [2] is reported as “Not Active”.

With `O=C1Cc2cc(S(=O)(=O)N3CCN(c4ccc(C(F)(F)F)cc4)CC3)ccc2N1` the IC50 [1] was “Not Active” and the IC50 [2] was “Not Active”.

For `CC(=O)c1ccc(N2CCN(S(=O)(=O)c3ccc4c(c3)OCC(=O)N4)CC2)cc1`, the IC50 [1] was “Not Active” and the IC50 [2] was “Not Active”.

`CC(=O)N1CCN(S(=O)(=O)c2ccc3c(c2)CC(=O)N3)CC1` showed an IC50 ([1]; read-out: IC50) of 14.9 µM and an IC50 ([2]; read-out: IC50) of 11.9 µM.

In the case of `CC(=O)c1ccc(N2CCN(S(=O)(=O)c3ccc4c(c3)CCCN4C(C)=O)CC2)cc1`, the IC50 [1] is reported as “Not Active” and the IC50 [2] is reported as “Not Active”.

`O=C1Cc2cc(S(=O)(=O)N3CCN(c4ccc(CO)cc4)CC3)ccc2N1` gave an IC50 ([1]; read-out: IC50) of 13 µM and an IC50 ([2]; read-out: IC50) of 13 µM.

Compound `O=C1Cc2cc(S(=O)(=O)N3CCN(c4ccc(O)cc4)CC3)ccc2N1` has a solubility [3] of 37.3 µM (≈ 13.9 µg/mL), an IC50 ([1]; read-out: IC50) of 2.37 µM and a Papp (Caco-2 [4]) of 17.8 ×10⁻⁶ cm/s. For the same compound, the t1/2 (Liver) was > 60 min, the IC50 ([2]; read-out: IC50) was 1.88 µM and the Papp (Caco-2 [5]) was 19.5 ×10⁻⁶ cm/s.

`O=Cc1ccc(N2CCN(S(=O)(=O)c3ccc4c(c3)CC(=O)N4)CC2)cc1` showed an IC50 ([1]; read-out: IC50) of 4.11 µM and an IC50 ([2]; read-out: IC50) of 3.66 µM.

With `CC(=O)c1ccc(N2CCN(S(=O)(=O)c3ccc4c(c3)CCCC(=O)N4)CC2)cc1` the IC50 [1] was “Not Active” and the IC50 [2] was “Not Active”.

In the case of `Cc1ccc(N2CCN(S(=O)(=O)c3ccc4c(c3)CC(=O)N4)CC2)cc1`, the IC50 [1] is reported as “Not Active” and the IC50 [2] is reported as “Not Active”.

In the case of `CC(=O)c1ccc(N2CCN(S(=O)(=O)c3ccc4[nH]c(=O)[nH]c4c3)CC2)cc1`, the IC50 [1] is reported as “Not Active” and the IC50 [2] is reported as “Not Active”.

For `O=C1Cc2cc(S(=O)(=O)N3CCN(c4ccc(F)cc4)CC3)ccc2N1`, the IC50 [1] was “Not Active” and the IC50 [2] was “Not Active”.

Compound `CC(=O)c1ccc(N2CCN(S(=O)(=O)c3ccc4c(c3)C(Cl)(Cl)C(=O)N4)CC2)cc1` has an IC50 ([1]; read-out: IC50) of 41 µM and an IC50 ([2]; read-out: IC50) of 32.6 µM.

`O=C1Cc2cc(S(=O)(=O)N3CCN(c4ccc(Cl)cc4)CC3)ccc2N1` gave an IC50 ([1]; read-out: IC50) of 94.3 µM and an IC50 ([2]; read-out: IC50) of 94.3 µM.

Work on `COc1ccc(N2CCN(S(=O)(=O)c3ccc4c(c3)CC(=O)N4)CC2)cc1` yielded an IC50 ([1]; read-out: IC50) of 18.8 µM and an IC50 ([2]; read-out: IC50) of 23.7 µM.

For `O=C1Cc2cc(S(=O)(=O)N3CCNCC3)ccc2N1`, the IC50 [1] was “Not Active” and the IC50 [2] was “Not Active”.

Work on `O=C1Cc2cc(S(=O)(=O)N3CCN(c4cccc(C(F)(F)F)c4)CC3)ccc2N1` yielded an IC50 ([1]; read-out: IC50) of 14.9 µM and an IC50 ([2]; read-out: IC50) of 14.9 µM.

With `CC(=O)c1ccc(N2CCN(S(=O)(=O)c3ccc4c(c3)C(=O)OC4)CC2)cc1` the IC50 [1] was “Not Active” and the IC50 [2] was “Not Active”.
